Test results as given in paper PMC10746112, “Synthesis and Pro-Apoptotic Effects of Nitrovinylanthracenes and Related Compounds in Chronic Lymphocytic Leukaemia (CLL) and Burkitt’s Lymphoma (BL)” (Molecules, 2023).
Like-named read-outs stand apart in the source and are kept apart here.

Assays:
[1] = tested on: MDA-MB-231 human breast cancer cells; experiment: alamarBlue cell viability assay; assay type: cell-based; conditions: eight concentrations 0.001–50 μM
HG-3 CLL cells = experiment: Annexin V/PI apoptotic assay (FACS); assay type: cell-based; conditions: 48 h
Protocol: (§1) The pro-apoptotic effects of the selected nitrovinylanthracene compounds 19a, 19g, 19i, 19l and 19m after 48 h were next determined using FITC (fluorescein isothiocyanate), Annexin V/PI (propidium iodide) staining and FACS (fluorescence-activated cell sorting) analysis to characterize the mode of cellular death induced. […] The CLL cells PGA1 and HG3 (1 × 10^6 cells/mL) were treated at 37 °C with either vehicle (1% (v/v) DMSO) or the nitrostyrene compounds 19a (10 μM, 5 μM and 1 μM) and 19g, 19i, 19l and 19m (10 μM and 1 μM) for 48 h. The cells were then harvested by centrifugation at 400× g in a temperature-controlled Sorvall centrifuge and rinsed with 0.5 mL of Ca^2+ Annexin-V-binding buffer (0.1 M HEPES, pH 7.4; 0.14 M NaCl; 25 mM CaCl2). The samples were resuspended in 50 µL FITC Annexin V (diluted 1:33 in Ca^2+ Annexin V-binding buffer), incubated on ice for 10 min (protected from light), washed with Annexin-V-binding buffer and re-suspended in 500 µL of propidium iodide (PI) solution (0.5 µg/mL). The samples were analysed within 1 h using a BD Accuri C6 flow cytometer counting 10,000 cells and analysed using the FlowJo software (FlowJo LLC, Ashland, OR, USA) package.

PGA-1 CLL cells = experiment: Annexin V/PI apoptotic assay (FACS); assay type: cell-based; conditions: 48 h
Protocol: as §1

[2] = tested on: MUTU-I Burkitt’s lymphoma cell line; conditions: read-out: IC50 MUTU-I; previous work; cited from earlier work
[3] = tested on: DG-75 Burkitt’s lymphoma cell line; conditions: read-out: IC50 DG-75; previous work; cited from earlier work
[4] = tested on: MUTU-I Burkitt’s lymphoma cell line; experiment: alamarBlue cell viability assay; conditions: MUTU-I; for viability at 1 µM / viability at 10 µM: 24 h; for viability at 1 µM: read-out: % Viable Cells Remaining MUTU-1, 1 µM, 24 h; for viability at 10 µM: read-out: % Viable Cells Remaining MUTU-1, 10 µM, 24 h
[5] = tested on: DG-75 Burkitt’s lymphoma cell line; experiment: alamarBlue cell viability assay; conditions: Homo sapiens; for viability at 1 µM / viability at 10 µM: DG-75, 48 h; for viability at 1 µM: read-out: % Viable Cells Remaining DG-75, 1 µM, 48 h; for viability at 10 µM: read-out: % Viable Cells Remaining DG-75, 10 µM, 48 h
[6] = tested on: MCF-7 human breast cancer cells; experiment: alamarBlue cell viability assay; conditions: MCF7, read-out: MCF-7 IC50
HG-3 CLL cell line = experiment: alamarBlue cell viability assay; conditions: for viability at 10 µM / IC50 / viability at 1 µM: 24 h; for viability at 10 µM: read-out: % Viability HG-3, 10 µM, 24 h; for fold greater response (IC50) in HG-3 compared to PGA-1 cells: ratio of IC50 values; for viability at 1 µM: read-out: % Viability HG-3, 1 µM, 24 h
PGA-1 CLL cell line = experiment: alamarBlue cell viability assay; conditions: 24 h; for viability at 10 µM: read-out: % Viability PGA-1, 10 µM, 24 h
physchem = assay type: physicochemical; conditions: buffer
Protocol: A preliminary HPLC stability study was performed on a representative nitrovinylanthracene compound 19m (isopropyl) in various biologically relevant pH systems (acidic pH 4 found in the stomach, basic pH 9 found in the intestine and pH 7.4 in the plasma). […] Based on the results of this stability study, the compound 19m was determined to be suitable for further preclinical investigation.

[7] = CLL cell, read-out: HG-3 IC50, 24 h
[8] = CLL cell, read-out: PGA-1 IC50, 24 h

| Structure (SMILES) | IC50 [1] [nM] | IC50 [6] [nM] | total apoptosis (HG-3 CLL cells; HG-3, 1 μM) [%] | total apoptosis (HG-3 CLL cells; HG-3, 10 μM) [%] | total apoptosis (PGA-1 CLL cells; PGA-1, 10 μM) [%] | viability at 1 µM [4] [%] | viability at 10 µM [4] [%] | viability at 1 µM [5] [%] | viability at 10 µM [5] [%] | viability at 10 µM (HG-3 CLL cell line; CLL cell) [%] | IC50 (HG-3 CLL cell line; [7]) [nM] | viability at 10 µM (PGA-1 CLL cell line; CLL cell) [%] | IC50 (PGA-1 CLL cell line; [8]) [nM] | fold greater response (IC50) in HG-3 compared to PGA-1 cells (HG-3 CLL cell line) [fold] | viability at 1 µM (HG-3 CLL cell line; CLL cell) [%] | also measured |
| --- | --- | --- | --- | --- | --- | --- | --- | --- | --- | --- | --- | --- | --- | --- | --- | --- |
| O=[N+]([O-])/C=C/c1c2ccccc2cc2ccccc12 [Compound 19a, (E)-9-(2-nitrovinyl)anthracene] | 3820 | 1850 | 21 | 93 | 94 | 82.5 | 5.91 | 94.6 | 14 | 8 | 2400 | 5.1 | 3100 | – | – | total apoptosis (HG-3 CLL cells; HG-3, 5 μM): 69%; total apoptosis (PGA-1 CLL cells; PGA-1, 1 μM): 40%; total apoptosis (PGA-1 CLL cells; PGA-1, 5 μM): 67%; IC50 [2]: 3000 nM; IC50 [3]: 1500 nM; IC50 ([4]; read-out: IC50 MUTU-I): 2570 nM; IC50 ([5]; DG-75, read-out: IC50 DG-75): 2080 nM; IC50 (HG-3 CLL cell line; read-out: HG-3 IC50): 2430 nM |
| CCc1c2ccccc2c(/C=C/[N+](=O)[O-])c2ccccc12 [Compound 19l, (E)-9-Ethyl-10-(2-Nitrovinyl)Anthracene] | – | – | – | 74 | 82 | 72.7 | 0.5 | 104 | 4.04 | 0.5 | 5400 | 2.7 | 1300 | – | 78 | – |
| CC(C)c1c2ccccc2c(/C=C/[N+](=O)[O-])c2ccccc12 [Compound 19m, (E)-9-Isopropyl-10-(2-Nitrovinyl)Anthracene] | – | – | 25 | 69 | 74 | 78.4 | 0.21 | 85.2 | 28.1 | 0.9 | 700 | 2.9 | 9100 | 13 | 82 | half-life (physchem; pH 4): > 24 h; remaining at 24 h (physchem; pH 4): 55%; half-life (physchem; pH 7.4): > 24 h; remaining at 24 h (physchem; pH 7.4): 56%; half-life (physchem; pH 9): 19 h; remaining at 24 h (physchem; pH 9): 42% |

More lines, main results first:

| IC50 [1] [nM] | IC50 [6] [nM] | Structure (SMILES) | total apoptosis (HG-3 CLL cells; HG-3, 1 μM) [%] | total apoptosis (HG-3 CLL cells; HG-3, 10 μM) [%] | total apoptosis (PGA-1 CLL cells; PGA-1, 10 μM) [%] | viability at 1 µM [4] [%] | viability at 10 µM [4] [%] | viability at 1 µM [5] [%] | viability at 10 µM [5] [%] | viability at 10 µM (HG-3 CLL cell line; CLL cell) [%] | IC50 (HG-3 CLL cell line; [7]) [nM] | viability at 10 µM (PGA-1 CLL cell line; CLL cell) [%] | IC50 (PGA-1 CLL cell line; [8]) [nM] | fold greater response (IC50) in HG-3 compared to PGA-1 cells (HG-3 CLL cell line) [fold] | viability at 1 µM (HG-3 CLL cell line; CLL cell) [%] | also measured |
| --- | --- | --- | --- | --- | --- | --- | --- | --- | --- | --- | --- | --- | --- | --- | --- | --- |
| 3780 | 5310 | COc1c2ccccc2c(/C=C/[N+](=O)[O-])c2ccccc12 [Compound 19g] | 11 | 54 | 52 | 90.1 | 1.85 | 89.2 | 13.8 | 0.5 to 8.3 | 170 | 1.21 | 1300 | 7.8 | – | viability at 1 µM (PGA-1 CLL cell line; CLL cell, read-out: % Viability PGA-1, 1 µM, 24 h): 43%; IC50 (PGA-1 CLL cell line; read-out: PGA-1 IC50): 1290 nM |
| 3260 | 2110 | Cc1c2ccccc2c(/C=C/[N+](=O)[O-])c2ccccc12 [Compound 19i, (E)-9-Methyl-10-(2-Nitrovinyl)Anthracene] | – | 70 | 80 | 94.5 | 1.95 | 96.7 | 19.5 | 0.5 to 8.3 | 3850 | 2.9 | 4400 | – | – | – |
